Results on one compound are retold here after publication PMC6934184, “Selective DNA-PKcs inhibition extends the therapeutic index of localized radiotherapy and chemotherapy” (The Journal of Clinical Investigation, 2019).

This test addresses T1, STK23 (MSSK1) (Homo sapiens, UniProt Q9UPE1).
T1 construct: purchased Thermo Fisher Scientific (Life Technologies) SelectScreen
The test can be described thus: SelectScreen Z'LYTE. The format is biochemical. A digest of the protocol:
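SelectScreen broad panel; activity (Z'LYTE, Adapta) plus binding formats. ATP: Km app for CSF1R Z'LYTE; 10 for CAMK1 Adapta. Readout = % per kinase.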

T1 sequence (Q9UPE1 whole entry): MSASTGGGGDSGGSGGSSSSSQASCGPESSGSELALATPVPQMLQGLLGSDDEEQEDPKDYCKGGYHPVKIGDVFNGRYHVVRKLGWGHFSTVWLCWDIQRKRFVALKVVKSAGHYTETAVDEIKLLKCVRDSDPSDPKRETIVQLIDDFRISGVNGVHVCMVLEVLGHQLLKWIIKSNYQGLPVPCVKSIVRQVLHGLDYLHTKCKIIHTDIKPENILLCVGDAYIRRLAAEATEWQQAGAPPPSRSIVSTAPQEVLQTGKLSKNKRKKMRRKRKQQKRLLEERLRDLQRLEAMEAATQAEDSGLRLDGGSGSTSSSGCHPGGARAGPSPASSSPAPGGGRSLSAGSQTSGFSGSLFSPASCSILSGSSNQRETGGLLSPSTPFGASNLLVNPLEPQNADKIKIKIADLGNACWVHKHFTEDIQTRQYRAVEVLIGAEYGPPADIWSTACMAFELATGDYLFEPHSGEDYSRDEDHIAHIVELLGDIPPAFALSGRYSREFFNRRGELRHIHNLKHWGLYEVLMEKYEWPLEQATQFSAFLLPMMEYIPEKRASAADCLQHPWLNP

`CN(C(=O)CN1CCOCC1)c1ccc2sc3c(-c4cccc5c(=O)cc(N6CC7CCC(C6)O7)oc45)cccc3c2c1` [NU5455]: the inhibition (usually the share of the control response that was lost under treatment) at 1 µM is 2%.
